Structures can show the parent of a compound that is named as a salt.
Columns and labels:
SB.mhdgc-1 [1] = assay: area under the dose-response curve of % viability (trapezoidal, 11 doses) (% viability x log10 concentration); higher = less cytotoxic; conditions: SB.mhdgc-1 (hereditary c.1380delA CDH1 gastric cancer)
Outline: (§1)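 Compound in DMSO was pinned (23 nL) at 11 threefold-diluted concentrations into wells containing 500 patient-derived gastric cancer cells, hereditary or sporadic, in 5 μL medium per 1536 well. Cells were incubated for 48 h, then exposed to CellTiter-Glo for 30 min at room temperature. Luminescence was measured on a ViewLux. The values are viability normalised to DMSO, either at the highest concentration or as trapezoidal area under the curve.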

SB.msgc-1 [2] = assay: as above; conditions: SB.msgc-1 (sporadic gastric cancer)
Outline: as §1

SB.mhdgc-1 [3] = assay: viability at highest tested concentration (MAXR) relative to DMSO; higher = less cytotoxic; conditions: SB.mhdgc-1 (hereditary c.1380delA CDH1 gastric cancer)
Outline: as §1

SB.msgc-1 [4] = assay: as above; conditions: SB.msgc-1 (sporadic gastric cancer)
Outline: as §1

Row | Compound | area under the dose-response curve (SB.mhdgc-1 [1]) | area under the dose-response curve (SB.msgc-1 [2]) | viability (SB.mhdgc-1 [3]) | viability (SB.msgc-1 [4])
1 | C=CCc1cc(OC)c(O)c(C(=O)NCCO)c1 [Alibendol] (top concentration 46.0829 µM) | 549 | 567 | 96.6% | 118%
2 | O=C1\C=C(OC2=C(C=CC=C12)C3=CC=CC4=C3SC5=C4C=CC=C5)\N6CCOCC6 [NU-7441] (top concentration 46.0829 µM) | 484 | 443 | 1.01% | 9.96%
3 | CC(C)(O)CCc1ccc(OCc2cc(-c3cccc(OC(F)F)c3)c3ncccc3c2)cc1 (top concentration 46.0829 µM) | 487 | 517 | 76.1% | 106%
4 | O=C1CCCC(=O)C1C(=O)c1ccc(C(F)(F)F)cc1[N+](=O)[O-] [Nitisinone] (top concentration 46.0829 µM) | 556 | 592 | 111% | 89.1%
5 | c1ccc(CNc2nc(N3CCOc4ccccc43)nc3c2CCCC3)cc1 (top concentration 46.0829 µM) | 550 | 480 | 98.1% | 61.9%
6 | CN1\C(=C(\O)C2=C(C=CC=C2)[S+]1([O-])=O)C(=O)NC3=CC=CC=N3 [Piroxicam] (top concentration 46.0829 µM) | 442 | 517 | 63.8% | 88.3%
7 | NC(=O)c1noc([C@H](CCCC2CCCCC2)CC(=O)NO)n1 (top concentration 46.0829 µM) | 570 | 563 | 41% | 69.5%
8 | O=C(CS(=O)Cc1ccco1)NC/C=C\COc1cc(CN2CCCCC2)ccn1 (stereo not drawn) [Lafutidine] (top concentration 46.0829 µM) | 537 | 304 | 68.6% | 33.7%
9 | COc1ccc2cccc(CCNC(C)=O)c2c1 [Agomelatine] (top concentration 46.0829 µM) | 525 | 531 | 88.1% | 92.6%
10 | CC1CCC(C(=O)N(c2cc(C#CC(C)(C)C)sc2C(=O)O)C2CCC(O)CC2)CC1 (stereo not drawn) [Lomibuvir] (top concentration 46.0829 µM) | 408 | 481 | 73.3% | 27.4%
11 | CO[C@H]1C[C@@H]2CC[C@@H](C)[C@@](O)(O2)C(=O)C(=O)N2CCCC[C@H]2C(=O)O[C@H]([C@H](C)C[C@@H]2CC[C@@H](OCCO)[C@H](OC)C2)CC(=O)[C@H](C)/C=C(/C)[C@@H](O)[C@@H](OC)C(=O)[C@H](C)C[C@H](C)\C=C/C=C\C=C/1C [Everolimus] (top concentration 46.0829 µM) | 356 | 466 | 41% | 79.6%
12 | CCOC(=O)O[C@]1(C(=O)OCCl)CC[C@H]2[C@@H]3CCC4=CC(=O)C=C[C@]4(C)[C@H]3[C@@H](O)C[C@@]21C [Loteprednol etabonate] (top concentration 46.0829 µM) | 493 | 520 | 92.8% | 110%
13 | CC(C)C(=O)Nc1ncc(-c2cc(C(F)F)nn2-c2c(Cl)cccc2Cl)s1 [BMS-5] (top concentration 46.0829 µM) | 459 | 514 | 41.3% | 34.6%
14 | Cc1ccc(C(=O)Nc2cccc(C(F)(F)F)c2)cc1Nc1nc(-c2cccnc2)nc2c1cnn2C [NVP-BHG712] (top concentration 46.0829 µM) | 404 | 463 | 1.3% | 8.83%
15 | CC(C)OC(=O)/C1=C/N(CC(C)(C)C2=C1[NH]C3=CC=CC=C23)C(=O)C4=CC=C(F)C(=C4)F [Turofexorate isopropyl] (top concentration 46.0829 µM) | 430 | 351 | 95.8% | 62.3%
16 | CCCc1nc(C(C)(C)O)c(C(=O)O)n1Cc1ccc(-c2ccccc2-c2nn[nH]n2)cc1 [Olmesartan] (top concentration 46.0829 µM) | 573 | 511 | 124% | 102%
17 | C[C@H]1O[C@H]([C@H](O)[C@@H]1O)N2\C=C(F)/C(=O)NC2=O [Doxifluridine] (top concentration 46.0829 µM) | 457 | 567 | 58.7% | 65.6%
18 | CC1(CN2CCC(n3c(=O)[nH]c4ccccc43)CC2)OCc2ccccc2-n2cccc21 (stereo not drawn) [Zaldaride maleate] (top concentration 46.0829 µM) | 510 | 325 | 5.92% | 20.3%
19 | C[N+]1(C)[C@@H]2CC(OC(=O)C(O)(c3cccs3)c3cccs3)C[C@H]1[C@@H]1O[C@@H]12 (stereo partly drawn) [Tiotropium bromide] (top concentration 46.0829 µM) | 477 | 528 | 118% | 113%
20 | COC1=C(OCCCN2CCOCC2)C=CC\3=C1/N=C(/NC(=O)C4=CN=C(N)N=C4)N5CC/N=C35 [BAY-80-6946] (top concentration 23.0415 µM) | 353 | 398 | 32% | 49.5%
21 | O=C(N[C@H](CO)[C@H](O)c1ccc([N+](=O)[O-])cc1)C(Cl)Cl [Chloramphenicol] (top concentration 46.0829 µM) | 534 | 544 | 92.1% | 111%
22 | Cn1cnc(-c2cc3nccc(Oc4ccc(NC(=S)NC(=O)Cc5ccccc5)cc4F)c3s2)c1 [MGCD-265] (top concentration 46.0829 µM) | 410 | 425 | 56.2% | 40%

Source: the supplement of paper PMC5412046
